Data as given in paper PMC12248599, “Exploring the Bioavailability of Red Grape Skin Extract Polyphenols: A Caco-2 Cell Model Study” (Foods, 2025).
Where “and” joins values, the source holds several entries; their conditions need not be identical. Equal values may be shown once. Entries after “also recorded” stand apart in the source; their conditions may differ. Marks after values point to notes of the source that are not given here.

Test system: Caco-2 cell monolayer
Assay: Caco-2 monolayer transport (bioavailability) study, AB and BA directions
Assay type: in vitro ADME, Homo sapiens
Conditions: for detection at the acceptor side of the Caco-2 cell monolayer: AB and BA experiments; for TE (%) transport efficiency: after 180 min
Protocol: A reversed phase C18 column (Luna 5 μm C18(2) 100 Å, LC Column 250 × 4.6 mm, Phenomenex) was used to separate the polyphenols at a flow rate of 0.7 mL/min with an injection volume of 60 µL. The detection was carried out at 520 nm for anthocyanins (M3G, D3G and Pet3G), at 328 nm for CA, at 356 nm for flavonols (Q3G, K3Gal and K3G) and at 280 nm for GA and SA. The mobile phases were (A) acetonitrile 100% and (B) water 0.1% trifluoroacetic acid (v/v). The gradient was programmed as follows: 10% A 0 min, 10–80% A (0–20 min), 80–100% A (20–25 min), 100% A (25–30 min); 10% A (30–35 min) and 10% A (35–40 min). Every polyphenol was quantified using the corresponding reference standard calibration curve. Each of the quantified phenolic compound concentration was expressed as mg/mL
For the transport experiment Caco-2 cells were cultured at a density of 4 × 10^4 cells/cm^2 in Transwell inserts (12 mm i.d., 1.12 cm^2 growth area, 0.4 µm mean pore size polycarbonate membranes, Corning Inc., Milwaukee, WI, USA) placed in 12-well plates. Caco-2 cells were grown in DMEM in an incubator at 37 °C in a humidified atmosphere containing 5% CO2.
Bioavailability studies were performed in triplicate after 21 days of cell growth. Only inserts with stable TEER values higher than ≥300 Ω cm^2 were considered acceptable to perform the bioavailability study. For that purpose, DMEM media was removed, the monolayer was washed with PBS and HBSS was supplied to the cells.
Likewise, the GSE stock solution was diluted in HBSS medium to prepare GSE solutions S1 and S2. GSE solutions S1 and S2 had concentrations of 15 mg/mL and 22 mg/mL, respectively. These concentrations were established considering previous studies with grape pomace extracts that concluded that intestinal concentrations of 1–2% (w/v) show potential bioactivities and are safe to be used as a food ingredient.
The apical side represents the intestinal lumen and the basolateral side represents the bloodstream. Each sample (100 µL) was immediately acidified with 1M HCl to a final concentration of 0.007 M and subsequently frozen at −20 °C until analysis by HPLC (according to the method described in Section 2.5). Each experiment was carried out on 3 individual wells. The transport efficiency (TE) percentage was calculated according to Equation (2):Transport efficiency (%) = (C/C0) × 100(2) where, C is the polyphenol concentration at the acceptor side over time and C0 is the initial concentration at the donor side. TE values were calculated for the nine polyphenols identified in the grape skin extract.
The apparent permeability coefficient (Papp) of the polyphenols in GSE was calculated for apical to basolateral side (AB) and basolateral to apical side (BA) flux studies according to Equation (3):Papp (cm/s) = (dQ/dt) × (VR/AC0)(3) where, dQ/dt is the permeability rate which means the steady-state linear rate of change of concentration (mg/L) per second (s) at the acceptor side; A is the surface area of the cell monolayer (1.12 cm^2). C0 is the initial concentration at the donor side (mg/L) at t = 0 s and VR is the volume of the solution of the acceptor side (mL).
The efflux ratio (ER) of the polyphenol was assessed by calculating the Equation (4):ER = Papp (BA)/Papp (AB)(4) where, Papp (BA) is the apparent permeability coefficient of the polyphenol from basolateral to apical side and Papp (AB) is the apparent permeability coefficient from apical to basolateral side. ER is a measure of the relative contributions of active and passive transport to bi-direction flux across the cell monolayer.

[1] = AB experiment, donor side, S1 (15 mg/mL GSE)
[2] = AB experiment, donor side, S2 (22 mg/mL GSE)
[3] = BA experiment, donor side, S1 (15 mg/mL GSE)
[4] = BA experiment, donor side, S2 (22 mg/mL GSE)
[5] = BA experiment, acceptor side, S1 (15 mg/mL GSE)
[6] = BA experiment, acceptor side, S2 (22 mg/mL GSE)

Apical Side 0 min [1] | Apical Side 75 min [1] | Apical Side 90 min [1] | Apical Side 115 min [1] | Apical Side 180 min [1] | Apical Side 0 min [2] | Apical Side 75 min [2] | Apical Side 90 min [2] | Apical Side 115 min [2] | Apical Side 180 min [2] | Basolateral Side 0 min [3] | Basolateral Side 75 min [3] | Basolateral Side 90 min [3] | Basolateral Side 115 min [3] | Basolateral Side 180 min [3] | Basolateral Side 0 min [4] | Basolateral Side 75 min [4] | Basolateral Side 90 min [4] | Basolateral Side 115 min [4] | Basolateral Side 180 min [4] | SMILES | other results
2.1 ± 0.2 ^a mg/L | 1.9 ± 0.2 ^a,b mg/L | 1.8 ± 0.1 ^b,c mg/L | 1.6 ± 0.1 ^c mg/L | 1.5 ± 0.1 ^c mg/L | 4.7 ± 0.1 ^a mg/L | 4.4 ± 0.1 ^b mg/L | 4.3 ± 0.1 ^c mg/L | 4.05 ± 0.09 ^c mg/L | 3.94 ± 0.08 ^c mg/L | 2.7 ± 0.2 ^a mg/L | 2.6 ± 0.2 ^a,b mg/L | 2.5 ± 0.2 ^b,c mg/L | 2.4 ± 0.2 ^b,c mg/L | 2.3 ± 0.2 ^c mg/L | 3.6 ± 0.2 ^a mg/L | 3.5 ± 0.2 ^a mg/L | 3.4 ± 0.2 ^a mg/L | 3.4 ± 0.2 ^d mg/L | 3.4 ± 0.2 ^a mg/L | OC[C@H]1O[C@@H](Oc2cc3c(O)cc(O)cc3[o+]c2-c2cc(O)c(O)c(O)c2)[C@H](O)[C@@H](O)[C@@H]1O [D3G, delphinidin-3-O-glucoside] | detection at the acceptor side of the Caco-2 cell monolayer: not detected
0.63 ± 0.02 ^a mg/L | 0.52 ± 0.02 ^b mg/L | 0.45 ± 0.02 ^c mg/L | 0.39 ± 0.01 ^d mg/L | 0.35 ± 0.01 ^c mg/L | 1.23 ± 0.02 ^a mg/L | 1.09 ± 0.02 ^b mg/L | 1.01 ± 0.02 ^c mg/L | 0.88 ± 0.02 ^d mg/L | 0.79 ± 0.02 ^c mg/L | 0.26 ± 0.01 mg/L and 0.26 ± 0.01 ^a mg/L | 0.19 ± 0.01 ^b mg/L | 0.13 ± 0.01 ^c mg/L | 0.08 ± 0.01 ^d mg/L | 0.05 ± 0.01 mg/L and 0.05 ± 0.01 ^c mg/L | 0.79 ± 0.02 ^a mg/L | 0.75 ± 0.02 ^b mg/L | 0.71 ± 0.02 ^c mg/L | 0.67 ± 0.02 ^d mg/L | 0.64 ± 0.01 ^c mg/L | O=c1c(OC2O[C@H](CO)[C@H](O)[C@H](O)[C@H]2O)c(-c2ccc(O)cc2)oc2cc(O)cc(O)c12 (stereo partly drawn) [K3Gal, kaempferol-3-galactoside] | detection at the acceptor side of the Caco-2 cell monolayer: not detected; reduction in concentration on the basolateral (donor) side (BA experiment, S1 (15 mg/mL GSE), 0 to 180 min): 81 ± 2%
1.8 ± 0.1 ^a mg/L | 1.4 ± 0.1 ^b mg/L | 1.2 ± 0.1 ^c mg/L | 1.02 ± 0.10 ^c,d mg/L | 0.9 ± 0.1 ^d mg/L | 4.4 ± 0.2 ^a mg/L | 4.0 ± 0.1 ^b mg/L | 3.7 ± 0.1 ^c mg/L | 3.33 ± 0.09 ^c mg/L | 3.16 ± 0.08 ^c mg/L | 4.3 ± 0.1 ^a mg/L | 4.0 ± 0.1 ^b mg/L | 3.8 ± 0.1 ^b,c mg/L | 3.65 ± 0.09 ^c,d mg/L | 3.49 ± 0.08 ^d mg/L | 3.1 ± 0.2 ^a mg/L | 3.0 ± 0.2 ^a mg/L | 2.9 ± 0.2 ^a mg/L | 2.7 ± 0.2 ^a mg/L | 2.7 ± 0.2 ^a mg/L | COc1cc(-c2[o+]c3cc(O)cc(O)c3cc2O[C@@H]2O[C@H](CO)[C@@H](O)[C@H](O)[C@H]2O)cc(O)c1O [Pet3G, petunidin-3-O-glucoside] | detection at the acceptor side of the Caco-2 cell monolayer: not detected
0.23 ± 0.01 ^a mg/L | 0.18 ± 0.01 ^b mg/L | 0.14 ± 0.01 ^c mg/L | 0.10 ± 0.00 ^d mg/L | 0.08 ± 0.00 ^c mg/L | 0.61 ± 0.01 ^a mg/L | 0.52 ± 0.01 ^b mg/L | 0.47 ± 0.01 ^c mg/L | 0.41 ± 0.01 ^d mg/L | 0.37 ± 0.01 ^c mg/L | 0.28 ± 0.02 ^a mg/L | 0.24 ± 0.02 ^b mg/L | 0.21 ± 0.02 ^c mg/L | 0.18 ± 0.01 ^d mg/L | 0.15 ± 0.01 ^c mg/L | 0.41 ± 0.03 ^a mg/L | 0.38 ± 0.03 ^a,b mg/L | 0.36 ± 0.03 ^a,b,c mg/L | 0.34 ± 0.03 ^b,c mg/L | 0.32 ± 0.03 ^c mg/L | O=c1c(O[C@@H]2O[C@H](CO)[C@@H](O)[C@H](O)[C@H]2O)c(-c2ccc(O)c(O)c2)oc2cc(O)cc(O)c12 [Q3G, quercetin-3-glucoside] | detection at the acceptor side (AB experiments, basolateral side): not detected; TE (%) transport efficiency (BA experiment, S1 (15 mg/mL GSE)): 4.1 ± 0.1%; TE (%) transport efficiency (BA experiment, S2 (22 mg/mL GSE)): 3.6 ± 0.1%; Apical Side 75 min [5]: 0.009 ± 0.001 ^b mg/L; Apical Side 90 min [5]: 0.010 ± 0.001 ^b,c mg/L; Apical Side 115 min [5]: 0.011 ± 0.001 ^c mg/L; Apical Side 180 min [5]: 0.011 ± 0.001 ^c mg/L; Apical Side 75 min [6]: 0.013 ± 0.001 ^b mg/L; Apical Side 90 min [6]: 0.013 ± 0.001 ^b,c mg/L; Apical Side 115 min [6]: 0.014 ± 0.001 ^c,d mg/L; Apical Side 180 min [6]: 0.015 ± 0.001 ^d mg/L; detection at the acceptor side (BA experiments, apical side): detected; also recorded: quantified
